According to paper PMC11645656, “MRGPRX4 mediates phospho-drug associated pruritus in a humanized mouse model” (Science translational medicine, 2024):
Values joined by “and” are separate entries in the source; they are usually repeats but may differ in a detail not shown here. Identical values can stand only once. Like-named read-outs stand apart in the source and are kept apart here.

Legend:
MRGPRX4 WT (S83) = MRGPRX4 WT (S83) (Homo sapiens, UniProt Q96LA9, L83S); test: Calcium mobilization assay (FLIPR), WT (S83) MRGPRX4 transiently expressed in HEK293T cells; assay type: cell-based; set-up: expressed in transfected cells; host or cells: HEK293T, transient; conditions: for fig. S8 response (normalized), concentration-response: WT, single replicate; for Potency at S83- vs L83-MRGPRX4: calcium mobilization, compared with S83L (A17)
Text: (§1) Fig. 4. […] Hydrogen bond is shown as cyan dashed lines. […] Data are from three independent experiments, performed in triplicate. (E) pEC50 plots of various agonists toward S83- and L83-MRGPRX4 through calcium mobilization assay. […] Each data point represents an independent experiment, performed in triplicate. The extra sum-of-square F test was used to examine the difference in EC50 values. One-sided t-test was used for nateglinide. *p< 0.05, **p< 0.01 and ***p< 0.001. ns = no statistical significance. Both (D) and (E) are reported as the mean ± SEM. N.D.= no detectable response ≤ 100 μM.
(§2) HEK293 cells and MRGPRX4 stably expressed HEK293 cells were seeded in 100 μl culture media on 96-well plates at a density of 40,000 cells per well and incubated overnight. The next day, the media were replaced with a dye-loading solution from the FLIPR Calcium 5 assay kit (Molecular Devices), diluted in Hank's Balanced Salt Solution (HBSS) with 20 mM HEPES, pH 7.4. After 1 h of incubation at 37°C, cells were allowed to recover for 10 min in the dark at room temperature prior to performing intracellular calcium mobilization assay in a Flexstation-3 instrument with SoftMax®Pro 7.1 software (Molecular Devices). Serial concentrations of tested drugs were prepared in HBSS/HEPES solution at 3X concentration. […] Compounds were tested in triplicates and the signals were averaged. Responses were determined by subtracting the minimum signal (at the baseline before adding the drug) from the maximum signal (obtained after drug stimulation). Four-parameter logistic (4PL) curve fit was used to plot the dose-response curves. […] Both dose-response curve fitting and EC50s calculation are computed with GraphPad Prism software (version: 6.o or above).
(§3) To generate murine Mrgprs expressing cells, HEK293T cells (ATCC) were seeded on poly-D-lysine coated 96 well plate at 25,000 cells per well one day prior to transfection. HEK293T cells were transiently co-transfected with the mammalian expression plasmids carrying cDNA encoding the murine Mrgpr genes and plasmid inserted with cDNA encoding murine α-subunit of the heterotrimeric G15 protein (Gα15) in triplicates using Lipofectamine LTX reagents (Thermo Scientific). To generate WT, S83L, and alanine mutant MRGPRX4-expressing cells, HEK293T cells were seeded on poly-D-lysine coated 384 well plate at 12,000 cells per well one day prior to transfection. Mammalian expression plasmids pLX304 (vector from Addgene) carrying different MRGPRX4 coding sequences were transiently transfected into HEK293T cells in triplicates with Lipofectamine LTX reagents (Thermo Scientific). Intracellular calcium mobilization assays were performed after one day of transfection. Murine Mrgprs tested include Mrgpra1, Mrgpra2a, Mrgpra2b, Mrgpra3, Mrgpra4, Mrgpra6, Mrgpra9, Mrgpra10, Mrgpra11, Mrgpra12, Mrgpra14, Mrgprb5, Mrgprb6, Mrgprb10, Mrgprb11, and Mrgprc11. WT and mutant MRGPRX4 constructs tested include WT, S83L, R82A, R86A, R95A, W158A, Y250A, and Y254A.

MRGPRX4 S83L (L83) = MRGPRX4 S83L (L83) (Homo sapiens, UniProt Q96LA9); test: Calcium mobilization assay (FLIPR), S83L MRGPRX4 transiently expressed in HEK293T cells; assay type: cell-based; set-up: expressed in transfected cells; host or cells: HEK293T, transient; conditions: Fig. 4E, unit not in the head, taken from Concentration (M) of the sheet and pEC50 [M] of Fig. 4E, read-out: EC50s (each well represents individual experiment)
Text: as §1, §2, §3

MRGPRX4 WT (S83), sequence (Q96LA9 whole entry L83S): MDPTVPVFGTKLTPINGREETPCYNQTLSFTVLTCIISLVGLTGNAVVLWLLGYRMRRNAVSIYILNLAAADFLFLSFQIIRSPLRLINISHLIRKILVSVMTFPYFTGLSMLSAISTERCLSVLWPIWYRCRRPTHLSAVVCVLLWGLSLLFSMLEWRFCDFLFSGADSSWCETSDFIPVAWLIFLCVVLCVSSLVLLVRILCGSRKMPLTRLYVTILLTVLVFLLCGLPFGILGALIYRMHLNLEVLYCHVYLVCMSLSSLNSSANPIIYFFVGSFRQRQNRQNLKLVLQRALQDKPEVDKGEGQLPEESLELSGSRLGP
MRGPRX4 S83L (L83), sequence (Q96LA9 whole entry, stated change not applied): as the sequence (Q96LA9 whole entry L83S) above, with S83L counted along it

SMILES	EC50 (MRGPRX4 WT (S83); WT (S83), Fig. 4E, unit not in the head, taken from Concentration (M) of the sheet and pEC50 [M] of Fig. 4E, read-out: EC50s (each well represents individual experiment))	fig. S8 response (normalized), concentration-response (MRGPRX4 WT (S83); 188.2 pM)	fig. S8 response (normalized), concentration-response (MRGPRX4 WT (S83); 564.5 pM)	fig. S8 response (normalized), concentration-response (MRGPRX4 WT (S83); 1.69351e-9 M)	fig. S8 response (normalized), concentration-response (MRGPRX4 WT (S83); 5.08053e-9 M)	fig. S8 response (normalized), concentration-response (MRGPRX4 WT (S83); 1.52416e-8 M)	fig. S8 response (normalized), concentration-response (MRGPRX4 WT (S83); 4.57247e-8 M)	fig. S8 response (normalized), concentration-response (MRGPRX4 WT (S83); 1.37174e-7 M)	fig. S8 response (normalized), concentration-response (MRGPRX4 WT (S83); 4.11523e-7 M)	fig. S8 response (normalized), concentration-response (MRGPRX4 WT (S83); 1.23457e-6 M)	fig. S8 response (normalized), concentration-response (MRGPRX4 WT (S83); 3.7037e-6 M)	fig. S8 response (normalized), concentration-response (MRGPRX4 WT (S83); 1.11111e-5 M)	fig. S8 response (normalized), concentration-response (MRGPRX4 WT (S83); 3.33333e-5 M)	fig. S8 response (normalized), concentration-response (MRGPRX4 WT (S83); 0.0001 M)	Potency at S83- vs L83-MRGPRX4 (MRGPRX4 WT (S83))	EC50 (MRGPRX4 S83L (L83))	EC50 (MRGPRX4 WT (S83); S83-MRGPRX4, Fig. 4E, read-out: pEC50 (converted))
C[C@]12CC3CC(C(=O)N[C@H](Cc4ccccc4)C(=O)O)(C1)C[C@@](C)(C3)C2 [MS47134]	1e-05 M and 9.11e-06 M and 5.25e-06 M	11.5885 and 10.879 and 5.439 and 5.904 and 6.997 and 13.1195 and 4.054	1.419 and 2.1285 and 14.19 and 0.656 and -3.499 and 16.1808 and 2.837 and 3.081	13.717 and 21.0485 and 8.041 and 7.872 and 6.341 and 14.6502 and 17.1869 and 20.1054	10.406 and 7.095 and 9.933 and 10.7143 and 1.312 and 11.3703 and 16.214 and 17.6733	16.555 and 11.5885 and 5.439 and 11.8076 and 1.749 and 16.6181 and 8.6745 and 13.0523	20.1025 and 15.609 and 18.447 and 12.2449 and 9.84 and 19.0233 and 11.1066	23.177 and 26.015 and 20.1025 and 11.3703 and 12.9009 and 13.1195 and 23.7536	18.92 and 25.069 and 17.2645 and 15.0875 and 10.7143 and 17.93 and 19.3758 and 16.214	24.3595 and 15.8455 and 8.041 and 11.5889 and 9.621 and 14.4315 and 14.7548 and 20.5918	23.8865 and 16.3185 and 10.879 and 20.3353 and 21.8659 and 19.0233 and 22.7807 and 20.3486	45.6445 and 43.516 and 42.3335 and 43.5131 and 43.9504 and 44.6064 and 52.9388 and 53.9116	61.017 and 69.0579 and 61.4432 and 62.3178 and 54.6647 and 48.561 and 41.5079	60.544 and 75.4434 and 62.6724 and 56.414 and 74.7813 and 68.4402 and 77.9895 and 57.3166	the L83 allele, as previously reported, exhibited greater potency and efficacy	2.33e-07 M and 2.26e-07 M and 1.83e-07 M	
CC(C)[C@H]1CC[C@H](C(=O)N[C@H](Cc2ccccc2)C(=O)O)CC1 [Nateglinide]						11.8843			16.3409	15.4027					the L83 allele, as previously reported, exhibited greater potency and efficacy	1.04e-06 M and 7.61e-07 M and 9.29e-07 M	> 0.0001 M
